Assay: Solubility of compounds in topical formulations (stirred, visual dissolution)
Assay type: physicochemical
Settings: for Solubility in Non-Aqueous Formulation: Non-Aqueous Formulation (50% PEG400, 15% Transcutol P, 25% ethanol, 10% DMSO)
Text: Several formulations were used to evaluate the solubility of the various compounds. Although any suitable pharmaceutical formulation may be used for the compounds, formulations such as those described below are suitable for administration of the compounds to the hair or scalp of a mammal such as a human being. The formulation may be sterilized before applying to a mammal such as a human being. • A Non-Aqueous Formulation, containing 50% PEG400, 15% Transcutol® P, 25% ethanol, and 10% DMSO was manufactured using the following general process: 10 g of PEG400, 3 g of Transcutol® P, 5 g of ethanol, and 2 g of DMSO were added to a clear vial. The mixture was then stirred using a stir bar until homogenous. • Aqueous Formulation 1, containing 10% PEG400, 20% Transcutol® HP, 45% ethanol, and 25% water was manufactured using the following general process: in a large amber pyrex bottle, 1) 19.98 g of PEG400 was added; 2) 40.07 g of Transcutol® HP was added; 3) 90 g of ethanol was added; 4) 50.03 g of water was added; and 5) the mixture was stirred using a magnetic stir bar for 30 mins at 800 rpm. • Aqueous Formulation 2, containing 10% propylene glycol, 20% Transcutol® HP, 45% ethanol, and 25% water was manufactured using the following process: in a large amber pyrex bottle, 1) 10.03 g propylene glycol was added; 2) 20.03 g Transcutol® HP was added; 3) 44.99 g ethanol was added; 4) 25.02 g water was added; and 5) the mixture was stirred using a magnetic stir bar for 30 mins at 800 rpm.
The solubilities of several compounds shown below in the described formulations are indicated below.
• Aqueous Formulation 1: 0.5 mg Reference Compound and 9.9996 g Aqueous Formulation 1 (0.005% w/w) were stirred at 600 RPM for 1 hour. The Reference Compound remained undissolved in 1 hour; • Aqueous Formulation 2: 0.5 mg Reference Compound and 10.0006 g Aqueous Formulation 2 (0.005% w/w) were stirred at 600 RPM for 1 hour. […]

Solubility in Non-Aqueous Formulation (dissolved / remained undissolved in 1 hour) [% w/w]	Solubility in Non-Aqueous Formulation (remained undissolved in 24 hours) [% w/w]	Solubility in Aqueous Formulation 1 (Aqueous Formulation 1 (10% PEG400, 20% Transcutol HP, 45% ethanol, 25% water), stirred at 600 RPM for 1 hour) [% w/w]	SMILES
≥ 0.1	< 0.2		N#C/C(=C\c1cn(-c2cccc(C(F)(F)F)c2)c2ncccc12)C(=O)O [Compound 3, (E)-2-cyano-3-(1-(3-(trifluoromethyl)phenyl)-1H-pyrrolo[2,3-b]pyridin-3-yl)acrylic acid]
		< 0.005	N#C/C(=C\c1cn(Cc2cc(C(F)(F)F)cc(C(F)(F)F)c2)c2ncccc12)C(=O)O [Reference Compound, (E)-3-(1-(3,5-bis(trifluoromethyl)benzyl)-1H-pyrrolo[2,3-b]pyridin-3-yl)-2-cyanoacrylic acid, reference compound]
